For test [1], the target named is T1, Leukotriene B4 receptor (Homo sapiens, UniProt Q9NPC1+Q15722). Description: Ability to inhibit LTB4 binding to LTB receptors on isolated human neutrophils. In kind it is protein assay.
Test [2] deals with T1, Leukotriene B4 receptor. Description: Ability to inhibit LTB4-induced chemotaxis of isolated human neutrophils. The class given is functional.
Test [3] addresses T1, Leukotriene B4 receptor. The test can be described thus: Ability to inhibit LTB4-induced CD11b up-regulation on isolated human neutrophils in whole blood. In kind it is functional, tissue-based.
The nature of test [4]: Ratio of CD11b(WB) IC50 to CD11b (IC)IC50. In kind it is functional.
Test [5] has as its target T1, Leukotriene B4 receptor. Description: Ability to inhibit LTB4-induced CD11b up-regulation on isolated human neutrophils. In kind it is functional.

Structures are written as SMILES.

With `O=C(O)c1ccc(F)cc1-c1ccc2c(c1)OC[C@H](Cc1ccc(C(F)(F)F)cc1)[C@H]2O`, the IC50 (in general, the concentration at which inhibition is half-maximal) is on record as 54 nM on Leukotriene B4 receptor [1] and 1800 nM against Leukotriene B4 receptor [2].

For `CC(C)c1ccc(C[C@H]2COc3cc(-c4cc(F)ccc4C(=O)O)ccc3[C@@H]2O)cc1`, the results for the half-inhibitory concentration (IC50) on Leukotriene B4 receptor [1] and at Leukotriene B4 receptor [2] were 190 nM and 210 nM, respectively.

With `O=C(O)c1c(-c2ccc3c(c2)OC[C@H](Cc2ccccc2)[C@H]3O)cccc1C(F)(F)F`, the IC50 at Leukotriene B4 receptor [3] is on record as 890 nM; at Leukotriene B4 receptor [1], 46 nM; against Leukotriene B4 receptor [5], 750 nM; against Leukotriene B4 receptor [2], 24 nM. In addition, the Ratio in test [4] amounted to 1.2.

Regarding `O=C(O)c1ccc(Cl)cc1-c1ccc2c(c1)OC[C@H](Cc1ccc(F)cc1)[C@H]2O`, the IC50 worked out at 54 nM at Leukotriene B4 receptor [1] and 400 nM against Leukotriene B4 receptor [2].

As to `O=C(O)c1ccc(Cl)cc1-c1ccc2c(c1)OC[C@H](Cc1ccc(C(F)(F)F)cc1)[C@H]2O`, the concentration for half-maximal inhibition (IC50) is 400 nM at Leukotriene B4 receptor [1] and 9000 nM against Leukotriene B4 receptor [2].

For `O=C(O)c1ccc(Cl)cc1-c1ccc2c(c1)OC[C@H](Cc1ccc3ccccc3c1)[C@H]2O`, the IC50 on Leukotriene B4 receptor [1] is given as 100 nM; against Leukotriene B4 receptor [2], 2250 nM.

With `O=C(O)c1cc(F)ccc1-c1ccc2c(c1)OC[C@H](Cc1ccccc1)[C@H]2O`, the concentration for half-maximal inhibition (IC50) amounted to 24 nM on Leukotriene B4 receptor [1] and 300 nM on Leukotriene B4 receptor [2].

In the case of `O=C(O)c1c(F)cc(F)cc1-c1ccc2c(c1)OC[C@H](Cc1ccccc1)[C@H]2O`, the IC50 at Leukotriene B4 receptor [3] was 200 nM; at Leukotriene B4 receptor [1], 5 nM; against Leukotriene B4 receptor [5] it was 300 nM; against Leukotriene B4 receptor [2], 40 nM. For the same molecule, the Ratio in test [4] was found to be 0.7.

For the molecule `O=C(O)c1ccc(F)cc1-c1ccc2c(c1)OC[C@H](CCc1ccccc1)[C@H]2O`, the figures for the half-inhibitory concentration (IC50) at Leukotriene B4 receptor [1] and against Leukotriene B4 receptor [2] were 35 nM and 32 nM, respectively.

Consider `NS(=O)(=O)c1ccc(F)cc1-c1ccc2c(c1)OC[C@H](Cc1ccccc1)[C@H]2O`, for which the concentration for half-maximal inhibition (IC50) against Leukotriene B4 receptor [3] is recorded as above 10000 nM; on Leukotriene B4 receptor [1], 37 nM; against Leukotriene B4 receptor [5] it was 540 nM; at Leukotriene B4 receptor [2], 17 nM.

As to `O[C@H]1c2ccc(-c3cc(F)ccc3-c3nn[nH]n3)cc2OC[C@@H]1Cc1ccccc1`, the figures for the IC50 on Leukotriene B4 receptor [1] and against Leukotriene B4 receptor [2] were 20 nM and 110 nM, respectively.

With `OCc1ccc(C(F)(F)F)cc1-c1ccc2c(c1)OC[C@H](Cc1ccccc1)[C@H]2O`, the half-maximal inhibitory concentration (IC50) on Leukotriene B4 receptor [1] came to 1700 nM; against Leukotriene B4 receptor [2], 9 nM.

As to `O=C(O)c1ccc(C(F)(F)F)cc1-c1ccc2c(c1)OC[C@H](Cc1ccc(Cl)cc1)[C@H]2O`, the IC50 on Leukotriene B4 receptor [1] is 70 nM; against Leukotriene B4 receptor [2], 58 nM.

On to `COC(=O)c1ccc(Cl)cc1-c1ccc2c(c1)OC[C@H](Cc1ccccc1)[C@H]2O`, for which the IC50 was 1700 nM on Leukotriene B4 receptor [1] and 6400 nM against Leukotriene B4 receptor [2].

Consider `O=C(O)c1ccc(Cl)cc1-c1ccc2c(c1)OC[C@H](Cc1ccccc1)[C@H]2O` (stereo in doubt; 6) [listing 1 of 2 here], for which the 50% inhibitory concentration (IC50) on Leukotriene B4 receptor [3] turned out to be 1300 nM; at Leukotriene B4 receptor [1] it was 14 nM; against Leukotriene B4 receptor [5], 265 nM; against Leukotriene B4 receptor [2], 30 nM.

Take `O=C(O)c1ccc(Cl)cc1-c1ccc2c(c1)OC[C@H](Cc1ccccc1)[C@H]2O` (stereo in doubt; 6) [listing 2 of 2 here]: the Ratio in test [4] came to 4.9.

For the molecule `O=C(O)c1ccc(Cl)cc1-c1ccc2c(c1)OC[C@H](Cc1ccccc1)[C@H]2O` (stereo in doubt; 7), the 50% inhibitory concentration (IC50) is given as 200 nM on Leukotriene B4 receptor [1] and 83 nM against Leukotriene B4 receptor [2].

Take `O=C(O)c1ccc(F)cc1-c1ccc2c(c1)OC[C@H](Cc1ccccc1)[C@H]2O` (stereo in doubt; 8): the 50% inhibitory concentration (IC50) on Leukotriene B4 receptor [1] came to 12 nM; against Leukotriene B4 receptor [2] it was 5 nM.

Take `O=C(O)c1ccc(F)cc1-c1ccc2c(c1)OC[C@H](Cc1ccccc1)[C@H]2O` (stereo in doubt; 9) [listing 1 of 2 here]: the IC50 against Leukotriene B4 receptor [3] amounted to 600 nM; on Leukotriene B4 receptor [1] it was 3 nM; against Leukotriene B4 receptor [5] it was 240 nM; at Leukotriene B4 receptor [2], 14 nM.

Regarding `O=C(O)c1ccc(F)cc1-c1ccc2c(c1)OC[C@H](Cc1ccccc1)[C@H]2O` (stereo in doubt; 9) [listing 2 of 2 here], the Ratio in test [4] was 2.5.

As for `O=C(O)c1ccc(F)cc1-c1ccc2c(c1)OC[C@H](Cc1ccccc1)[C@H]2O` (stereo in doubt; 10) [listing 1 of 2 here], the IC50 is recorded as 3500 nM on Leukotriene B4 receptor [3], 27 nM on Leukotriene B4 receptor [1], 3000 nM on Leukotriene B4 receptor [5] and 5 nM at Leukotriene B4 receptor [2].

In the case of `O=C(O)c1ccc(F)cc1-c1ccc2c(c1)OC[C@H](Cc1ccccc1)[C@H]2O` (stereo in doubt; 10) [listing 2 of 2 here], the Ratio in test [4] was found to be 1.2.

Take `O=C(O)c1c(F)cccc1-c1ccc2c(c1)OC[C@H](Cc1ccccc1)[C@H]2O` (stereo in doubt; 12): the 50% inhibitory concentration (IC50) was found to be 22 nM on Leukotriene B4 receptor [1] and 10 nM against Leukotriene B4 receptor [2].

In the case of `O=C(O)c1c(F)cccc1-c1ccc2c(c1)OC[C@H](Cc1ccccc1)[C@H]2O` (stereo in doubt; 13) [listing 1 of 2 here], the IC50 at Leukotriene B4 receptor [3] was found to be 1000 nM; on Leukotriene B4 receptor [1] it was 11 nM; against Leukotriene B4 receptor [5] it was 400 nM; against Leukotriene B4 receptor [2], 40 nM.

Regarding `O=C(O)c1c(F)cccc1-c1ccc2c(c1)OC[C@H](Cc1ccccc1)[C@H]2O` (stereo in doubt; 13) [listing 2 of 2 here], the Ratio in test [4] was determined as 2.5.

`O=C(O)c1c(F)cccc1-c1ccc2c(c1)OC[C@H](Cc1ccccc1)[C@H]2O` (stereo in doubt; 14): the IC50 amounted to 240 nM at Leukotriene B4 receptor [1] and 650 nM at Leukotriene B4 receptor [2].

With `O=C(O)c1ccc(C(F)(F)F)cc1-c1ccc2c(c1)OC[C@H](Cc1ccccc1)[C@H]2O` (stereo in doubt; 15) [CP-195543], the half-maximal inhibitory concentration (IC50) on Leukotriene B4 receptor [1] is 13 nM; on Leukotriene B4 receptor [2], 7 nM.

On to `O=C(O)c1ccc(C(F)(F)F)cc1-c1ccc2c(c1)OC[C@H](Cc1ccccc1)[C@H]2O` (stereo in doubt; 16), for which, in test [4], the Ratio amounted to 2.3.

As for `O=C(O)c1ccc(C(F)(F)F)cc1-c1ccc2c(c1)OC[C@H](Cc1ccccc1)[C@H]2O` (stereo in doubt; 16) [CP-195543], the half-maximal inhibitory concentration (IC50) is 660 nM at Leukotriene B4 receptor [3], 6.8 nM at Leukotriene B4 receptor [1], 280 nM against Leukotriene B4 receptor [5] and 2.4 nM at Leukotriene B4 receptor [2].

Regarding `O=C(O)c1ccc(C(F)(F)F)cc1-c1ccc2c(c1)OC[C@H](Cc1ccccc1)[C@H]2O` (stereo in doubt; 17) [CP-195543], the half-inhibitory concentration (IC50) was 56 nM at Leukotriene B4 receptor [1] and 2 nM on Leukotriene B4 receptor [2].

Take `O=C(O)c1ccc(Cl)cc1-c1ccc2c(c1)OC[C@H](Cc1ccc(-c3ccccc3)cc1)[C@H]2O` (stereo in doubt; 22) [listing 1 of 2 here]: the concentration for half-maximal inhibition (IC50) against Leukotriene B4 receptor [3] stood at 1700 nM; at Leukotriene B4 receptor [1], 4 nM; against Leukotriene B4 receptor [5], 520 nM; at Leukotriene B4 receptor [2], 6 nM.

On to `O=C(O)c1ccc(Cl)cc1-c1ccc2c(c1)OC[C@H](Cc1ccc(-c3ccccc3)cc1)[C@H]2O` (stereo in doubt; 22) [listing 2 of 2 here], for which the Ratio in test [4] came to 3.3.

Consider `O=C(O)c1ccc(Cl)cc1-c1ccc2c(c1)OC[C@H](Cc1ccc(-c3ccccc3)cc1)[C@H]2O` (stereo in doubt; 23) [listing 1 of 2 here], for which the IC50 was 3900 nM on Leukotriene B4 receptor [3], 8 nM at Leukotriene B4 receptor [1], 590 nM at Leukotriene B4 receptor [5] and 26 nM against Leukotriene B4 receptor [2].

Take `O=C(O)c1ccc(Cl)cc1-c1ccc2c(c1)OC[C@H](Cc1ccc(-c3ccccc3)cc1)[C@H]2O` (stereo in doubt; 23) [listing 2 of 2 here]: in test [4], the Ratio was 6.6.

As to `O=C(O)c1ccc(F)cc1-c1ccc2c(c1)OC[C@H](Cc1ccc(-c3ccccc3)cc1)[C@H]2O` (stereo in doubt; 24) [listing 1 of 2 here], the IC50 on Leukotriene B4 receptor [3] worked out at 700 nM; on Leukotriene B4 receptor [1], 4 nM; at Leukotriene B4 receptor [5] it was 280 nM; against Leukotriene B4 receptor [2], 56 nM.

As to `O=C(O)c1ccc(F)cc1-c1ccc2c(c1)OC[C@H](Cc1ccc(-c3ccccc3)cc1)[C@H]2O` (stereo in doubt; 24) [listing 2 of 2 here], the Ratio in test [4] is 2.5.

Consider `O=C(O)c1ccc(F)cc1-c1ccc2c(c1)OC[C@H](Cc1ccc(-c3ccccc3)cc1)[C@H]2O` (stereo in doubt; 25) [listing 1 of 2 here], for which the 50% inhibitory concentration (IC50) at Leukotriene B4 receptor [3] is on record as 5100 nM; at Leukotriene B4 receptor [1] it was 14 nM; against Leukotriene B4 receptor [5] it was 700 nM; on Leukotriene B4 receptor [2] it was 5 nM.

Turning to `O=C(O)c1ccc(F)cc1-c1ccc2c(c1)OC[C@H](Cc1ccc(-c3ccccc3)cc1)[C@H]2O` (stereo in doubt; 25) [listing 2 of 2 here], the Ratio in test [4] was 7.3.

Turning to `O=C(O)c1ccc(C(F)(F)F)cc1-c1ccc2c(c1)OC[C@H](Cc1ccc(-c3ccccc3)cc1)[C@H]2O` (stereo in doubt; 26) [listing 1 of 2 here], the IC50 at Leukotriene B4 receptor [3] is given as 1900 nM; at Leukotriene B4 receptor [1] it was 38 nM; on Leukotriene B4 receptor [5], 120 nM; against Leukotriene B4 receptor [2], 6 nM.

As for `O=C(O)c1ccc(C(F)(F)F)cc1-c1ccc2c(c1)OC[C@H](Cc1ccc(-c3ccccc3)cc1)[C@H]2O` (stereo in doubt; 26) [listing 2 of 2 here], the Ratio in test [4] is 15.8.

As to `O=C(O)c1ccc(C(F)(F)F)cc1-c1ccc2c(c1)OC[C@H](Cc1ccc(-c3ccccc3)cc1)[C@H]2O` (stereo in doubt; 27) [listing 1 of 2 here], the IC50 was found to be 4000 nM against Leukotriene B4 receptor [3], 27 nM at Leukotriene B4 receptor [1], 820 nM against Leukotriene B4 receptor [5] and 7 nM at Leukotriene B4 receptor [2].

Regarding `O=C(O)c1ccc(C(F)(F)F)cc1-c1ccc2c(c1)OC[C@H](Cc1ccc(-c3ccccc3)cc1)[C@H]2O` (stereo in doubt; 27) [listing 2 of 2 here], the Ratio in test [4] turned out to be 4.9.

As for `O=S(=O)(Nc1ccc(F)cc1-c1ccc2c(c1)OC[C@H](Cc1ccccc1)[C@H]2O)C(F)(F)F` (stereo in doubt; 38) [listing 1 of 2 here], the half-inhibitory concentration (IC50) against Leukotriene B4 receptor [3] worked out at 330 nM; at Leukotriene B4 receptor [1] it was 3.8 nM; on Leukotriene B4 receptor [5], 360 nM; on Leukotriene B4 receptor [2] it was 15 nM.

In the case of `O=S(=O)(Nc1ccc(F)cc1-c1ccc2c(c1)OC[C@H](Cc1ccccc1)[C@H]2O)C(F)(F)F` (stereo in doubt; 38) [listing 2 of 2 here], the Ratio in test [4] turned out to be 0.9.

In the case of `O=S(=O)(Nc1ccc(F)cc1-c1ccc2c(c1)OC[C@H](Cc1ccccc1)[C@H]2O)C(F)(F)F` (stereo in doubt; 39), the IC50 against Leukotriene B4 receptor [3] is on record as above 3000 nM; at Leukotriene B4 receptor [1], 50 nM; on Leukotriene B4 receptor [5], above 3000 nM; at Leukotriene B4 receptor [2], 44 nM.

The values above are taken from ChEMBL document CHEMBL1130879, “trans-3-Benzyl-4-hydroxy-7-chromanylbenzoic acid derivatives as antagonists of the leukotriene B4 (LTB4) receptor” (Bioorg Med Chem Lett, 1998).
